Columns and labels:
Format in all cases: cell-based
Conditions in all cases: 24 hours of compound treatment, 50 nM and 500 nM
WEE1 = molecular target: T1, WEE1 (Homo sapiens, UniProt P30291+Q96SW2); test: Western-blot assay, substrate protein degradation in hPBMCs: WEE1
T1 construct: effects of the compounds of the present disclosure on the expression of target proteins in cells; endogenous in cells; host or cells: human PBMCs (hPBMCs)

IKZF3 = molecular target: T2, IKZF3 (Homo sapiens, UniProt Q96SW2+Q9UKT9); test: Western-blot assay, substrate protein degradation in hPBMCs: IKZF3
T2 construct: effects of the compounds of the present disclosure on the expression of target proteins in cells; endogenous in cells; host or cells: human PBMCs (hPBMCs)

GSPT1 = molecular target: T3, GSPT1 (Homo sapiens, UniProt P15170+Q96SW2); test: Western-blot assay, substrate protein degradation in hPBMCs: GSPT1
T3 construct: effects of the compounds of the present disclosure on the expression of target proteins in cells; endogenous in cells; host or cells: human PBMCs (hPBMCs)

IKZF2 = molecular target: T4, IKZF2 (Homo sapiens, UniProt Q96SW2+Q9UKS7); test: Western-blot assay, substrate protein degradation in hPBMCs: IKZF2
T4 construct: effects of the compounds of the present disclosure on the expression of target proteins in cells; endogenous in cells; host or cells: human PBMCs (hPBMCs)

IKZF1 = molecular target: T5, IKZF1 (Homo sapiens, UniProt Q13422+Q96SW2); test: Western-blot assay, substrate protein degradation in hPBMCs: IKZF1
T5 construct: effects of the compounds of the present disclosure on the expression of target proteins in cells; endogenous in cells; host or cells: human PBMCs (hPBMCs)

CK1α = molecular target: T6, CK1α (Homo sapiens, UniProt P48729+Q96SW2); test: Western-blot assay, substrate protein degradation in hPBMCs: CK1α
T6 construct: effects of the compounds of the present disclosure on the expression of target proteins in cells; endogenous in cells; host or cells: human PBMCs (hPBMCs)
T6 sequence (P48729 whole entry): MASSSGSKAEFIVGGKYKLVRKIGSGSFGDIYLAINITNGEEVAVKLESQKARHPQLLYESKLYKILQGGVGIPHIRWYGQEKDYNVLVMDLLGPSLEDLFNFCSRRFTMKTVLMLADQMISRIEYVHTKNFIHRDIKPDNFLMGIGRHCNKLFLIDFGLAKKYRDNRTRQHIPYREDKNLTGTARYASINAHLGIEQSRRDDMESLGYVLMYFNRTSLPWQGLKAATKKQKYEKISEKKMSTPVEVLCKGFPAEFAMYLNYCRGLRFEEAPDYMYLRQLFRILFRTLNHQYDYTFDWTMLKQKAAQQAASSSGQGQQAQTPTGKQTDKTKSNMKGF
T6 sequence (Q96SW2 whole entry): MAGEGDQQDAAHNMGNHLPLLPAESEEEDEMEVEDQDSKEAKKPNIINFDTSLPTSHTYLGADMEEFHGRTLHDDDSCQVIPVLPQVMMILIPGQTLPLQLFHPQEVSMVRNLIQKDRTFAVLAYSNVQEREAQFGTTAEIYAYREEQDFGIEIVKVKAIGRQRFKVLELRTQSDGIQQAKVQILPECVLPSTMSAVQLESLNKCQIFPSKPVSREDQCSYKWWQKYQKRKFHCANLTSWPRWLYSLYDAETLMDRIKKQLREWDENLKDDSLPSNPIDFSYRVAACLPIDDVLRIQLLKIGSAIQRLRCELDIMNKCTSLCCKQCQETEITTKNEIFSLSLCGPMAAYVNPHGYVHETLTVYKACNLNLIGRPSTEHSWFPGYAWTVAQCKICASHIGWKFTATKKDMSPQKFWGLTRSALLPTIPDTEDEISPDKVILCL
T6 sequence (Q16531 whole entry partner): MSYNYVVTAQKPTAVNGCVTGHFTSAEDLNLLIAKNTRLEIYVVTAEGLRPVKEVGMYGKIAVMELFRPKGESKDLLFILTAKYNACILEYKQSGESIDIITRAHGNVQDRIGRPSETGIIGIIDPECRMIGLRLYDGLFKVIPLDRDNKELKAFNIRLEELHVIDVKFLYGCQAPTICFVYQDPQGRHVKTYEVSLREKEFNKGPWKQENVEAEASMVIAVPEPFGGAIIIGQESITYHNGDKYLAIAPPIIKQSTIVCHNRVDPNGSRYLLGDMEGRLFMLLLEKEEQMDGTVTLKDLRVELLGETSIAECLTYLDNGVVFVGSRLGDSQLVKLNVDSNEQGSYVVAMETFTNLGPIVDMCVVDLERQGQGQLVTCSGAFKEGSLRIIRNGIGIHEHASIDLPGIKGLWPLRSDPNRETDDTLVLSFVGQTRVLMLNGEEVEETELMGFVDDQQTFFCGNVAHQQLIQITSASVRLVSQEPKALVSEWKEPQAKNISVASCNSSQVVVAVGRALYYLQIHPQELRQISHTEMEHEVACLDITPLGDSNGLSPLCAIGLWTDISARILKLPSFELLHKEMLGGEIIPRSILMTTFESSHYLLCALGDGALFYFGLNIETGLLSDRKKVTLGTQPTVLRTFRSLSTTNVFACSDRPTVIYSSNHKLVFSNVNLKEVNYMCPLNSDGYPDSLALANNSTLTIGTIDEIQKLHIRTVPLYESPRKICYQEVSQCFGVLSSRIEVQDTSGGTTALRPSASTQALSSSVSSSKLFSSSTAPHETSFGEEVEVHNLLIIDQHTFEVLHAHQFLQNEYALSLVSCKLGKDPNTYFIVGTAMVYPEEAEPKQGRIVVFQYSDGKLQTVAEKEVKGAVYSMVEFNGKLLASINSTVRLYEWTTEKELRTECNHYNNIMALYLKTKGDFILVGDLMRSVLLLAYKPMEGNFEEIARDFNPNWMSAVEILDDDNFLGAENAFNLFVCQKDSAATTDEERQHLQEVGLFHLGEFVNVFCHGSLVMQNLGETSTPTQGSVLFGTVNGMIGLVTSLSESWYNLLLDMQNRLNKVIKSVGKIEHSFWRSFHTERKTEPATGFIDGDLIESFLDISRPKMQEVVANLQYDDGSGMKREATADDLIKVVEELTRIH

T5 sequence (Q13422 whole entry): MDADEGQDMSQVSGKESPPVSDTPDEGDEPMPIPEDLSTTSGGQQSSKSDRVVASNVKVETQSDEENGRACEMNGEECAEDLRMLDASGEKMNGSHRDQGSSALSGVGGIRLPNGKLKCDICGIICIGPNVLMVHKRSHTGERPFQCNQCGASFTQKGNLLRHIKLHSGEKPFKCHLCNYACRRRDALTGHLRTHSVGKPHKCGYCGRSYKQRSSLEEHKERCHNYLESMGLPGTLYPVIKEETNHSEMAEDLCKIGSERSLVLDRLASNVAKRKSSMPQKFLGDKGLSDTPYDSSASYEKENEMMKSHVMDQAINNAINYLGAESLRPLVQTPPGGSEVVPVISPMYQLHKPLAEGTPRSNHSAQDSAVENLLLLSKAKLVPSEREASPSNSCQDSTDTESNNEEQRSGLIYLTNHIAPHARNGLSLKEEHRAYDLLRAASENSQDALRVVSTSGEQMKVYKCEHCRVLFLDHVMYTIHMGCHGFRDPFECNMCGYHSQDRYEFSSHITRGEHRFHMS
T5 sequence (Q96SW2 whole entry): as the sequence (Q96SW2 whole entry) above
T5 sequence (Q16531 whole entry partner): as the sequence (Q16531 whole entry partner) above
T4 sequence (Q9UKS7 whole entry): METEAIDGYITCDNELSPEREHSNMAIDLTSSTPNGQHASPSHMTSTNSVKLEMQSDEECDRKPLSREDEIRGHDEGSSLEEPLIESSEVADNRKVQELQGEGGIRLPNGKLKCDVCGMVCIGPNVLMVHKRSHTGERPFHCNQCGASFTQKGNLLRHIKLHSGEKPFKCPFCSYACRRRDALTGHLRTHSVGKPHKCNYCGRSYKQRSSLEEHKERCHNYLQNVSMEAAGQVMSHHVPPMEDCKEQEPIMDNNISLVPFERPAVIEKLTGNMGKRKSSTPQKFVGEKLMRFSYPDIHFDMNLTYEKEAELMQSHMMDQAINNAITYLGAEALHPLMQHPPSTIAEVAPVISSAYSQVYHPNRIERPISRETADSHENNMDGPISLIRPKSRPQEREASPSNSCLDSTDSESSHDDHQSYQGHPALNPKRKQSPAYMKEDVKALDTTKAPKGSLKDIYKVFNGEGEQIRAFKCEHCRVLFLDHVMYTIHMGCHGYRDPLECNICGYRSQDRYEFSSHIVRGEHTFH
T4 sequence (Q96SW2 whole entry): as the sequence (Q96SW2 whole entry) above
T4 sequence (Q16531 whole entry partner): as the sequence (Q16531 whole entry partner) above
T1 sequence (P30291 whole entry): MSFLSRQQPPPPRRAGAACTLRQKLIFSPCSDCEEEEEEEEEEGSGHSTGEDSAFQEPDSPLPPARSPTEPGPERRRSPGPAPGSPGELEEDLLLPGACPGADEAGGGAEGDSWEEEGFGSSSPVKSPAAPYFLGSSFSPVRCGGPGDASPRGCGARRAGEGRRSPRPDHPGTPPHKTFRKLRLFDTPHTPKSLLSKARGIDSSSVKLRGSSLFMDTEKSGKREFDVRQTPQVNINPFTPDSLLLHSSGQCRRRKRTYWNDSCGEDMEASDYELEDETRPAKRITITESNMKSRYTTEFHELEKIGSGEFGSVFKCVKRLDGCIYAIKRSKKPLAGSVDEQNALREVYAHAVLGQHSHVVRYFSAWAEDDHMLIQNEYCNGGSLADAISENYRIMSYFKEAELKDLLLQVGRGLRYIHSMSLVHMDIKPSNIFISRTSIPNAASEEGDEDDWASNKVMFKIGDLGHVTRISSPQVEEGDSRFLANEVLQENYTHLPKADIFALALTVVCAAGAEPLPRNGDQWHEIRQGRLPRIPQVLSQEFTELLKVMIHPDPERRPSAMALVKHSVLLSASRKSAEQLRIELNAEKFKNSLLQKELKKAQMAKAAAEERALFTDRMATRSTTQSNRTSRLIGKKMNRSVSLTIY
T1 sequence (Q96SW2 whole entry): as the sequence (Q96SW2 whole entry) above
T1 sequence (Q16531 whole entry partner): as the sequence (Q16531 whole entry partner) above
T2 sequence (Q9UKT9 whole entry): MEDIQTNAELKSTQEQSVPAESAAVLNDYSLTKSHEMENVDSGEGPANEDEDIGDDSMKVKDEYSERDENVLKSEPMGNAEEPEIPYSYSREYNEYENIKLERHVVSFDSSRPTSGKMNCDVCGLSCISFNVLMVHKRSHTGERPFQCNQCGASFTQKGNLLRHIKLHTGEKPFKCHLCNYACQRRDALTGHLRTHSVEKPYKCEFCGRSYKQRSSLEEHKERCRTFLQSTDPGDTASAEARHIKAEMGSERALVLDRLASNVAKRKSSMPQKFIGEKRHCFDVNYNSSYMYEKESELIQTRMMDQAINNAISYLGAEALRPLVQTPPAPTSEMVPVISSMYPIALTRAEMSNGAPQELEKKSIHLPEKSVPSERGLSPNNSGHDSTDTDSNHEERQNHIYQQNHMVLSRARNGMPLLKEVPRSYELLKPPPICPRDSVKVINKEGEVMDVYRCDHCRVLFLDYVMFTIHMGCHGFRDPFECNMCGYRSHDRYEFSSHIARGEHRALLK
T2 sequence (Q96SW2 whole entry): as the sequence (Q96SW2 whole entry) above
T2 sequence (Q16531 whole entry partner): as the sequence (Q16531 whole entry partner) above

| Compound | substrate protein remaining % WEE1 (WEE1) | substrate protein remaining % IKZF3 (IKZF3) | substrate protein remaining % GSPT1 (GSPT1) | substrate protein remaining % IKZF2 (IKZF2) | substrate protein remaining % IKZF1 (IKZF1) | substrate protein remaining % CK1α (CK1α) |
| --- | --- | --- | --- | --- | --- | --- |
| O=C1CCN(N2Cc3cc(CN4CCC(N5C(=O)COc6cc(F)ccc65)CC4)ccc3C2=O)C(=O)N1 [GT-07586, 1-(5-((4-(7-fluoro-3-oxo-2,3-dihydro-4H-benzo[b][1,4]oxazin-4-yl)piperidin-1-yl)methyl)-1-oxoisoindolin-2-yl)dihydropyrimidine-2,4(1H,3H)-dione] | A (0% ≤ substrate protein remaining % ≤ 80%) | B (80%< substrate protein remaining %≤ 100%) | A (0% ≤ substrate protein remaining % ≤ 80%) | B (80%< substrate protein remaining %≤ 100%) | A (0% ≤ substrate protein remaining % ≤ 80%) | B (80%< substrate protein remaining %≤ 100%) |
| O=C1CCN(N2Cc3cc(CN4CCC(C5CCOc6cc(F)ccc65)CC4)ccc3C2=O)C(=O)N1 (stereo not drawn) [GT-07587, 1-(5-((4-(7-fluorochroman-4-yl)piperidin-1-yl)methyl)-1-oxoisoindolin-2-yl)dihydropyrimidine-2,4(1H,3H)-dione] | A (0% ≤ substrate protein remaining % ≤ 80%) | B (80%< substrate protein remaining %≤ 100%) | A (0% ≤ substrate protein remaining % ≤ 80%) | B (80%< substrate protein remaining %≤ 100%) | A (0% ≤ substrate protein remaining % ≤ 80%) | B (80%< substrate protein remaining %≤ 100%) |
| O=C1CCN(N2Cc3cc(CN4CCC(=C5CCOc6cc(F)ccc65)CC4)ccc3C2=O)C(=O)N1 [GT-07588, 1-(5-((4-(7-fluorochroman-4-ylidene)piperidin-1-yl)methyl)-1-oxoisoindolin-2-yl)dihydropyrimidine-2,4(1H,3H)-dione] | B (80%< substrate protein remaining %≤ 100%) | B (80%< substrate protein remaining %≤ 100%) | A (0% ≤ substrate protein remaining % ≤ 80%) | B (80%< substrate protein remaining %≤ 100%) | B (80%< substrate protein remaining %≤ 100%) | B (80%< substrate protein remaining %≤ 100%) |
| O=C1CCN(N2Cc3cc(CN4CCC(c5cccc6c(F)cccc56)CC4)ccc3C2=O)C(=O)N1 [GT-07589, 1-(5-((4-(5-fluoronaphthalen-1-yl)piperidin-1-yl)methyl)-1-oxoisoindolin-2-yl)dihydropyrimidine-2,4(1H,3H)-dione] | B (80%< substrate protein remaining %≤ 100%) | B (80%< substrate protein remaining %≤ 100%) | A (0% ≤ substrate protein remaining % ≤ 80%) | B (80%< substrate protein remaining %≤ 100%) | B (80%< substrate protein remaining %≤ 100%) | B (80%< substrate protein remaining %≤ 100%) |
| O=C1CCN(N2Cc3cc(CN4CCC(c5noc6ccccc56)CC4)ccc3C2=O)C(=O)N1 [GT-07642, 1-(5-((4-(benzo[d]isoxazol-3-yl)piperidin-1-yl)methyl)-1-oxoisoindolin-2-yl)dihydropyrimidine-2,4(1H,3H)-dione] | B (80%< substrate protein remaining %≤ 100%) | B (80%< substrate protein remaining %≤ 100%) | A (0% ≤ substrate protein remaining % ≤ 80%) | B (80%< substrate protein remaining %≤ 100%) | B (80%< substrate protein remaining %≤ 100%) | B (80%< substrate protein remaining %≤ 100%) |
| O=C1CCN(N2C(=O)c3ccc(CN4CC=C(c5n[nH]c6cc(F)ccc56)CC4)cc3C2=O)C(=O)N1 [GT-07643, 2-(2,4-dioxotetrahydropyrimidin-1(2H)-yl)-5-((4-(6-fluoro-1H-indazol-3-yl)-3,6-dihydropyridin-1(2H)-yl)methyl)isoindoline-1,3-dione] | B (80%< substrate protein remaining %≤ 100%) | B (80%< substrate protein remaining %≤ 100%) | A (0% ≤ substrate protein remaining % ≤ 80%) | B (80%< substrate protein remaining %≤ 100%) | B (80%< substrate protein remaining %≤ 100%) | B (80%< substrate protein remaining %≤ 100%) |
| O=C1CCN(N2Cc3cc(CN4CCC(c5cccc6cnccc56)CC4)ccc3C2=O)C(=O)N1 [GT-07644, 1-(5-((4-(isoquinolin-5-yl)piperidin-1-yl)methyl)-1-oxoisoindolin-2-yl)dihydropyrimidine-2,4(1H,3H)-dione] | B (80%< substrate protein remaining %≤ 100%) | B (80%< substrate protein remaining %≤ 100%) | A (0% ≤ substrate protein remaining % ≤ 80%) | B (80%< substrate protein remaining %≤ 100%) | B (80%< substrate protein remaining %≤ 100%) | B (80%< substrate protein remaining %≤ 100%) |
| O=C1CCN(N2Cc3cc(CN4CCC(c5ccnc6cc(F)ccc56)CC4)ccc3C2=O)C(=O)N1 [GT-07645, 1-(5-((4-(7-fluoroquinolin-4-yl)piperidin-1-yl)methyl)-1-oxoisoindolin-2-yl)dihydropyrimidine-2,4(1H,3H)-dione] | B (80%< substrate protein remaining %≤ 100%) | B (80%< substrate protein remaining %≤ 100%) | A (0% ≤ substrate protein remaining % ≤ 80%) | B (80%< substrate protein remaining %≤ 100%) | A (0% ≤ substrate protein remaining % ≤ 80%) | B (80%< substrate protein remaining %≤ 100%) |
| O=C1CCN(N2C(=O)c3ccc(CN4CCC(N5CCCc6cc(F)ccc65)CC4)cc3C2=O)C(=O)N1 [GT-07681, 2-(2,4-dioxotetrahydropyrimidin-1(2H)-yl)-5-((4-(6-fluoro-3,4-dihydroquinolin-1(2H)-yl)piperidin-1-yl)methyl)isoindoline-1,3-dione] | B (80%< substrate protein remaining %≤ 100%) | B (80%< substrate protein remaining %≤ 100%) | A (0% ≤ substrate protein remaining % ≤ 80%) | B (80%< substrate protein remaining %≤ 100%) | A (0% ≤ substrate protein remaining % ≤ 80%) | B (80%< substrate protein remaining %≤ 100%) |
| O=C1CCN(N2C(=O)c3ccc(CN4CCC(N5CCOc6cc(F)ccc65)CC4)cc3C2=O)C(=O)N1 [GT-07682, 2-(2,4-dioxotetrahydropyrimidin-1(2H)-yl)-5-((4-(7-fluoro-2,3-dihydro-4H-benzo[b][1,4]oxazin-4-yl)piperidin-1-yl)methyl)isoindoline-1,3-dione] | B (80%< substrate protein remaining %≤ 100%) | B (80%< substrate protein remaining %≤ 100%) | A (0% ≤ substrate protein remaining % ≤ 80%) | B (80%< substrate protein remaining %≤ 100%) | B (80%< substrate protein remaining %≤ 100%) | B (80%< substrate protein remaining %≤ 100%) |
| O=C1CCN(N2C(=O)c3ccc(CN4CCC(N5C(=O)COc6cc(F)ccc65)CC4)cc3C2=O)C(=O)N1 [GT-07683, 2-(2,4-dioxotetrahydropyrimidin-1(2H)-yl)-5-((4-(7-fluoro-3-oxo-2,3-dihydro-4H-benzo[b][1,4]oxazin-4-yl)piperidin-1-yl)methyl)isoindoline-1,3-dione] | B (80%< substrate protein remaining %≤ 100%) | B (80%< substrate protein remaining %≤ 100%) | A (0% ≤ substrate protein remaining % ≤ 80%) | B (80%< substrate protein remaining %≤ 100%) | B (80%< substrate protein remaining %≤ 100%) | B (80%< substrate protein remaining %≤ 100%) |
| O=C1CCN(N2C(=O)c3ccc(CN4CCC(C5CCOc6cc(F)ccc65)CC4)cc3C2=O)C(=O)N1 (stereo not drawn) [GT-07684, 2-(2,4-dioxotetrahydropyrimidin-1(2H)-yl)-5-((4-(7-fluorochroman-4-yl)piperidin-1-yl)methyl)isoindoline-1,3-dione] | B (80%< substrate protein remaining %≤ 100%) | B (80%< substrate protein remaining %≤ 100%) | A (0% ≤ substrate protein remaining % ≤ 80%) | B (80%< substrate protein remaining %≤ 100%) | B (80%< substrate protein remaining %≤ 100%) | B (80%< substrate protein remaining %≤ 100%) |
| O=C1CCN(N2C(=O)c3ccc(CN4CCC(=C5CCOc6cc(F)ccc65)CC4)cc3C2=O)C(=O)N1 [GT-07685, 2-(2,4-dioxotetrahydropyrimidin-1(2H)-yl)-5-((4-(7-fluorochroman-4-ylidene)piperidin-1-yl)methyl)isoindoline-1,3-dione] | B (80%< substrate protein remaining %≤ 100%) | B (80%< substrate protein remaining %≤ 100%) | A (0% ≤ substrate protein remaining % ≤ 80%) | B (80%< substrate protein remaining %≤ 100%) | B (80%< substrate protein remaining %≤ 100%) | B (80%< substrate protein remaining %≤ 100%) |

— patent EP4722207A1, “OXOISOINDOLINYL-SUBSTITUTED TETRAHYDROPYRIMIDINEDIONE DERIVATIVE AND USE THEREOF” (Gluetacs Therapeutics (Shanghai) Co., Ltd., priority 2023, dated 2024)
